Tests used:
Type in all cases: cell-based
[1] = Mitochondria toxicity assay with PC3 cells, in-cell ELISA COX-1; details: 5 days treatment
Outline: (§1)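 This in-cell ELISA was run on fixed, permeabilized PC3 cells after 5-day exposure to titrated compound, with cytotoxicity measured on a duplicate plate. Results are reported as categories A (<1.0 μM) to E (>100.0 μM).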

PC3 cells = assay: Mitochondria toxicity assay with PC3 cells, cytotoxicity (Cell Titer Glo); details: Homo sapiens, PC-3, 120 h, 5 days treatment
Outline: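 PC3 cells in F-12K with 10% FBS exposed to a compound dose titration for 5 days at 37° C, 5% CO2. Viability by Cell Titer Glo luminescence after 30 min at room temperature; values binned A (<1.0 μM) to E (>100.0 μM).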

[2] = test system: SDH-A (succinate dehydrogenase-A); assay: Mitochondria toxicity assay with PC3 cells, in-cell ELISA SDH-A; details: 5 days treatment
Outline: as §1

THP1-Dual KO-TREX1 cells = assay: THP1 TREX1 KO inhibition assay (type 1 interferon response); details: Homo sapiens, 144 h, type 1 interferon (QUANTI-LUC), 1 μM 5-aza-2′-deoxycytidine, six days
Outline: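 THP1-Dual KO-TREX1 cells were treated with a dose titration of compound, alone or with 1 μM 5-aza-2′-deoxycytidine, for six days at 37 °C. Type 1 interferon was read as secreted luciferase (QUANTI-LUC) in the supernatant, and viability by CellTiter-Glo luminescence.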

## Nc1ccn([C@@H]2O[C@@](CO)(CF)[C@@H](O)[C@@H]2F)c(=O)n1 [Compound 113, 4-amino-1-((2R,3S,4R,5R)-3-fluoro-5-(fluoromethyl)-4-hydroxy-5-(hydroxymethyl)-tetrahydrofuran-2-yl)pyrimidin-2(1H)-one]
[1]
  IC50: < 1 µM
PC3 cells
  IC50: < 1 µM
[2]
  IC50: < 1 µM
THP1-Dual KO-TREX1 cells
  IC50: > 1 µM

## Nc1ccn([C@@H]2O[C@@](CO)(CCl)[C@@H](O)[C@@H]2O)c(=O)n1 [Compound 114, 4-amino-1-((2R,3S,4S,5R)-5-(chloromethyl)-3,4-dihydroxy-5-(hydroxymethyl)tetrahydro-furan-2-yl)pyrimidin-2(1H)-one]
[1]
  IC50: > 100 µM
PC3 cells
  IC50: > 100 µM
[2]
  IC50: > 100 µM
THP1-Dual KO-TREX1 cells
  IC50: > 1 µM

## CC[C@]1(CO)O[C@@H](n2cnc3c(=O)[nH]c(N)nc32)C[C@@H]1O [Compound 115, 2-amino-9-((2R,4S,5R)-5-ethyl-4-hydroxy-5-(hydroxymethyl)tetrahydro-furan-2-yl)-1,9-dihydro-6H-purin-6-one]
[1]
  IC50: 1 to 10 µM
PC3 cells
  IC50: 1 to 10 µM
[2]
  IC50: 1 to 10 µM
THP1-Dual KO-TREX1 cells
  IC50: > 1 µM

## Nc1ccn([C@@H]2O[C@@](CO)(CCl)[C@@H](O)C2(F)F)c(=O)n1 [Compound 119, 4-amino-1-((2R,4R,5R)-5-(chloromethyl)-3,3-difluoro-4-hydroxy-5-(hydroxymethyl)tetrahydrofuran-2-yl)pyrimidin-2(1H)-one]
[1]
  IC50: 1 to 10 µM
PC3 cells
  IC50: 1 to 10 µM
[2]
  IC50: 1 to 10 µM
THP1-Dual KO-TREX1 cells
  IC50: > 1 µM

## Nc1nc(=O)n([C@H]2C[C@H](O)[C@](CO)(C3CC3)O2)cc1F [Compound 120, 4-amino-1-[(2R,4S,5R)-5-cyclopropyl-4-hydroxy-5-(hydroxymethyl)oxolan-2-yl]-5-fluoropyrimidin-2-one]
[1]
  IC50: > 100 µM
PC3 cells
  IC50: > 100 µM
[2]
  IC50: > 100 µM
THP1-Dual KO-TREX1 cells
  IC50: > 1 µM

## Nc1ccn([C@@H]2O[C@@](CO)(C3CC3)[C@@H](O)[C@@H]2F)c(=O)n1 [Compound 121, 4-amino-1-[(2R,3S,4R,5R)-5-cyclopropyl-3-fluoro-4-hydroxy-5-(hydroxymethyl)oxolan-2-yl] pyrimidin-2-one]
[1]
  IC50: > 100 µM
PC3 cells
  IC50: > 100 µM
[2]
  IC50: > 100 µM
THP1-Dual KO-TREX1 cells
  IC50: > 1 µM

## Nc1nc(=O)n([C@@H]2O[C@@](CO)(C3CC3)[C@@H](O)[C@@H]2F)cc1F [Compound 122, 4-amino-1-[(2R,3S,4R,5R)-5-cyclopropyl-3-fluoro-4-hydroxy-5-(hydroxymethyl)oxolan-2-yl]-5-fluoropyrimidin-2-one]
[1]
  IC50: > 100 µM
PC3 cells
  IC50: > 100 µM
[2]
  IC50: > 100 µM
THP1-Dual KO-TREX1 cells
  IC50: > 1 µM

## Nc1nc(=O)n([C@@H]2O[C@](/C=C\F)(CO)[C@@H](O)[C@@H]2F)cc1F [Compound 123, 4-amino-5-fluoro-1-((2R,3S,4R,5R)-3-fluoro-5-((Z)-2-fluorovinyl)-4-hydroxy-5-(hydroxymethyl)tetrahydrofuran-2-yl)pyrimidin-2(1H)-one]
[1]
  IC50: > 100 µM
PC3 cells
  IC50: > 100 µM
[2]
  IC50: > 100 µM
THP1-Dual KO-TREX1 cells
  IC50: > 1 µM

## Nc1nc(=O)n([C@@H]2O[C@](/C=C/Cl)(CO)[C@@H](O)[C@@H]2F)cc1F [Compound 131, 4-amino-1-[(2R,3S,4R,5R)-5(E)-(2-chloroethenyl)-3-fluoro-4-hydroxy-5-(hydroxymethyl)oxolan-2-yl]-5-fluoropyrimidin-2-one]
[1]
  IC50: > 100 µM
PC3 cells
  IC50: > 100 µM
[2]
  IC50: > 100 µM
THP1-Dual KO-TREX1 cells
  IC50: > 1 µM

## Nc1nc(=O)n([C@@H]2O[C@@](CO)(CCl)[C@@H](O)[C@@H]2Cl)cc1F [Compound 137, 4-amino-1-[(2R,3S,4R,5R)-3-chloro-5-(chloromethyl)-4-hydroxy-5-(hydroxymethyl)oxolan-2-yl]-5-fluoropyrimidin-2-one]
[1]
  IC50: > 100 µM
PC3 cells
  IC50: > 100 µM
[2]
  IC50: > 100 µM
THP1-Dual KO-TREX1 cells
  IC50: > 1 µM

## C=C=C[C@]1(CO)O[C@@H](n2cnc3c(N)nc(F)nc32)C[C@@H]1O [Compound 164, (2R,3S,5R)-5-(6-amino-2-fluoropurin-9-yl)-2-(hydroxymethyl)-2-(propa-1,2-dien-1-yl) oxolan-3-ol]
[1]
  IC50: > 100 µM
PC3 cells
  IC50: > 100 µM
[2]
  IC50: > 100 µM
THP1-Dual KO-TREX1 cells
  IC50: > 1 µM

## [N-]=[N+]=N[C@]1(CO)O[C@@H](n2cc(F)c(N)nc2=O)[C@@H](F)[C@@H]1O [Compound 165]
[1]
  IC50: < 1 µM
PC3 cells
  IC50: > 100 µM
[2]
  IC50: < 1 µM
THP1-Dual KO-TREX1 cells
  IC50: 0.25 to 1 µM

## Nc1ccn([C@@H]2O[C@@](CO)(CBr)[C@@H](O)[C@@H]2F)c(=O)n1 [Compound 172]
[1]
  IC50: > 100 µM
PC3 cells
  IC50: > 100 µM
[2]
  IC50: > 100 µM
THP1-Dual KO-TREX1 cells
  IC50: > 1 µM

## [2H]C([2H])(Cl)[C@]1(CO)O[C@@H](n2cc(F)c(N)nc2=O)[C@@H](F)[C@@H]1O [Compound 175, 4-amino-1-((2R,3S,4R,5R)-5-(chloromethyl-d2)-3-fluoro-4-hydroxy-5-(hydroxymethyl)tetrahydrofuran-2-yl)-5-fluoropyrimidin-2(1H)-one]
[1]
  IC50: > 100 µM
PC3 cells
  IC50: > 100 µM
[2]
  IC50: > 100 µM
THP1-Dual KO-TREX1 cells
  IC50: 0.25 to 1 µM

## Cc1cn([C@@H]2O[C@@](CO)(CCl)[C@@H](O)[C@@H]2F)c(=O)[nH]c1=O [Compound 176]
[1]
  IC50: > 100 µM
PC3 cells
  IC50: > 100 µM
[2]
  IC50: > 100 µM
THP1-Dual KO-TREX1 cells
  IC50: > 1 µM

## Nc1nc(=O)n([C@@H]2OC(CO)(CO)[C@@H](O)[C@@H]2F)cc1F [Compound 177, 4-amino-5-fluoro-1-((2R,3S,4R)-3-fluoro-4-hydroxy-5,5-bis(hydroxymethyl)tetrahydrofuran-2-yl) pyrimidin-2(1H)-one]
[1]
  IC50: > 100 µM
PC3 cells
  IC50: > 100 µM
[2]
  IC50: > 100 µM
THP1-Dual KO-TREX1 cells
  IC50: > 1 µM

## Cc1cn([C@@H]2O[C@@](CO)(N=[N+]=[N-])[C@@H](O)[C@@H]2F)c(=O)[nH]c1=O [Compound 178, 1-((2R,3S,4R,5R)-5-azido-3-fluoro-4-hydroxy-5-(hydroxymethyl)tetrahydrofuran-2-yl)-5-methylpyrimidine-2,4(1H,3H)-dione]
[1]
  IC50: 10 to 50 µM
PC3 cells
  IC50: > 100 µM
[2]
  IC50: > 100 µM
THP1-Dual KO-TREX1 cells
  IC50: > 1 µM

## O=c1[nH]c(=O)n([C@@H]2O[C@@](CO)(CCO)[C@@H](O)[C@@H]2F)cc1F [Compound 179, 5-fluoro-1-((2R,3S,4R,5R)-3-fluoro-4-hydroxy-5-(2-hydroxyethyl)-5-(hydroxymethyl)tetrahydrofuran-2-yl) pyrimidine-2,4(1H,3H)-dione]
[1]
  IC50: > 100 µM
PC3 cells
  IC50: > 100 µM
[2]
  IC50: > 100 µM
THP1-Dual KO-TREX1 cells
  IC50: > 1 µM

## Cc1cn([C@H]2C[C@H](F)[C@@](C)(CO)O2)c(=O)[nH]c1=O [Compound 180, 1-((2R,4S,5R)-4-fluoro-5-(hydroxymethyl)-5-methyltetrahydrofuran-2-yl)-5-methylpyrimidine-2,4(1H,3H)-dione]
[1]
  IC50: > 100 µM
PC3 cells
  IC50: > 100 µM
[2]
  IC50: > 100 µM
THP1-Dual KO-TREX1 cells
  IC50: > 1 µM

Reference: patent publication US12187758B2 (ROME Therapeutics, Inc., priority 2022, dated 2025)
